Measured values taken from patent publication US9345681B2, “Anti-obesity agent comprising high-purity EPA” (MOCHIDA PHARMACEUTICAL CO., LTD., priority 2011, dated 2016).

Key:
[1] = tested on: obesity model hamster fed on a high fat diet; assay: Effect of suppressing the body weight gain in the obesity model hamster fed on a high fat diet; type: in vivo, Syrian hamsters; conditions: for body weight gain rate on the 21st day: mixed diet of high fat diet + 2% test substance, compared with high-fat diet group (FIG. 1)
Experimental: 6 week old male Syrian hamsters (Japan SLC, Inc.) were bred at a temperature of 23±3° C. and a light-dark cycle of 12 hours on a free feeding of standard diet for 11 days, and the hamsters were divided into 4 groups, namely, standard forage group (Standard) (n=4), high-fat diet group (n=8), EPA group (HF+EPA-E) (n=8), and DHA group (HF+DHA-E) (n=7). The standard diet used was CLEA Rodent Diet CE-2 (4.8% fat) manufactured by CLEA Japan, Inc. and the high fat diet (HF) used was Hypercholesterolemic Hamster Diet (9% sugar and fat 21% fat) manufactured by Wilson. The effects of the EPA and DHA on the body weight gain were confirmed by using hamsters fed on a high fat diet (HF). During the feeding on the high fat diet, a mixed diet of high fat diet+2% EPA-E (comprising 98.24% EPA-E manufactured by Nippon Suisan Kaisha, Ltd.) was given to the EPA group, and a mixed diet of high fat diet+2% DHA-E (comprising 97.4% DHA-E manufactured by Equateq Ltd.) was given to the DHA group (with the diet changed once a day in the morning). The control group was given a high fat diet or a standard diet (comprising 4.8% fat) (with the diet changed once a day in the morning). The body weight was measured from the day of the start of the administration. The body weight gain rate on the 21st day was higher in the group fed on the high-fat diet group compared to the standard forage group, and the group fed on the high-fat diet was in the condition of obesity. […] This confirms that the action of suppressing the body weight gain (or reducing the body weight) of the EPA-E is realized by the action of suppressing (or reducing) the amount of fat, namely, the anti-obesity action.

plasma LDL-C = assay: Effects on LDL-C level in high fat diet hamster; type: in vivo, Syrian hamsters; conditions: high fat diet + 2% test substance, 21st day of the administration (FIG. 3)
Experimental: (§1) 6 week old male Syrian hamsters (Japan SLC, Inc.) were bred at a temperature of 23±3° C. and a light-dark cycle of 12 hours on a free feeding of standard diet for 11 days, and the hamsters were divided into 4 groups, namely, standard forage group (Standard) (n=4), high-fat diet group (n=8), EPA group (HF+EPA-E) (n=8), and DHA group (HF+DHA-E) (n=7). The standard diet used was CLEA Rodent Diet CE-2 (4.8% fat) manufactured by CLEA Japan, Inc. and the high fat diet (HF) used was Hypercholesterolemic Hamster Diet (9% sugar and fat 21% fat) manufactured by Wilson. The action of the EPA and the DHA on the LDL-C level was confirmed by using the hamsters fed on a high fat diet. Along with the experiment of the action of suppressing the body weight gain in Experimental Example 1, blood was collected at day 7, 14, and 21 after the starting of the administration, and plasma was separated by centrifugation. Plasma LDL-C concentration was measured by using a commercially available test reagent (Wako L-Type LDL-C manufactured by Wako Pure Chemical Industries).

CETP = assay: Effects on CETP activity value in high fat diet hamster; type: in vivo, Syrian hamsters; conditions: high fat diet + 2% test substance, 21st day of the administration (FIG. 4)
Experimental: as §1, with “CETP activity value” for “LDL-C level”, “CETP activity value” for “LDL-C concentration”, “a” for “a commercially available”, “(CETP activity assay kit” for “(Wako L-Type LDL-C”, “Bio Vision).” for “Wako Pure Chemical Industries).”

[2] = tested on: model mouse with obesity associated with enhanced hepatic lipogenesis or fatty liver; conditions: model mouse continuously fed on a high-fat and high-sugar diet; cited from earlier work
[3] = tested on: model mouse with obesity not associated with the enhancement of hepatic lipogenesis or fatty liver; conditions: model mouse continuously fed on a high-fat diet; cited from earlier work

Row | Structure (SMILES) | amount of fat in the epididymis on the 21st day ([1]; high fat diet + 2% test substance, 21st day (FIG. 2)) | body weight gain rate on the 21st day [1] | plasma LDL-C level (plasma LDL-C) | plasma CETP activity value (CETP) | suppression of body weight gain [2] | suppression of body weight gain [3]
1 | CC/C=C\C/C=C\C/C=C\C/C=C\C/C=C\CCCC(=O)OCC [EPA-E, ethyl icosapentate] | increase in the amount of fat was significantly suppressed | lower than the control high-fat diet group | an action of suppressing the increase of the plasma LDL-C level was found | the action of suppressing the increase of the CETP activity was confirmed | effective in suppressing the body weight gain | ineffective
2 | CC/C=C\C/C=C\C/C=C\C/C=C\C/C=C\C/C=C\CCC(=O)OCC [DHA-E, ethyl docosahexaenoate] | – | approximately equal to that of the high-fat diet group | An action of increasing the plasma LDL-C level was found | increase in the CETP activity was confirmed | – | –
